Reference: EP1541694A1, “Methods of identifying, selecting and/or characterizing compounds which modulate the activity of a Src family kinase” (Sirenade Pharmaceuticals AG, priority 2003, dated 2005)

System: ZM75.7 (Src)
Test: MTS and ATP cell viability/metabolic activity assays, suppression of tet-induced reduction
Assay type: cell-based, human
Details: 3 days after tet/compound addition
Description: To proof the concept of the assay platform according to the invention in a quantitative manner with a highly parallel readout, the following cell viability / metabolic activity assays from Promega according to the manufacturer's protocols: "CellTiter 96 AQueous One Solution Cell Proliferation Assay (MTS)", CellTiter-Blue™ Cell Viability Assay (CTB), and the ATP-status assay "CellTiter-Glo Luminescent Cell Viability Assay" (ATP) were used to obtain quantitative values reflecting (aspects of) the phenotype changes.
The cells were seeded into white-walled/ clear bottom 96-well plates ["MICROTEST" by Falcon, cat.no. […] Measurements were taken 1,2 and 3 days later using the Wallac Victor^2™ multilabel plate reader (Perkin Elmer). Absorbance was measured at 490nm (MTS). Luminescence mode was used for the ATP assay. For CTB fluorescence excitation wavelength was 550nm (filter: 550(20)nm), emission wavelength was 590 nm (filter: 590(20)nm). […]
Three more parameters reflecting the effects of compounds on cell viability/metabolic activity in these assays are indicated in Tab.3 and Tab.4: Toxicity reflects the nonspecific (i.e. irrespective of tet-induced Src/ Src mutant expression) effects of a compound on the viability/ metabolic activity of the cells. It is calculated as toxicity=1-mean(-tet, compound)/mean(-tet,(DMSO)). […]

CC(C)(C)n1nc(-c2ccc(Cl)cc2)c2c(N)ncnc21 [PP2]
suppression effects on ZM75.7: detected
